In patent US5310667A (priority 1989, dated 1994):

Legend:
[1] = biological target: T1, pMON8186 encoded petunia EPSP synthase variant (glycine (101) to alanine and glycine (144) to aspartic acid) (Petunia hybrida, UniProt P11043, G173A/G216D); assay: EPSP synthase kinetic constants (appKi glyphosate, appKm PEP); type: biochemical
T1 construct: GGT codon for glycine (144) in the mature petunia EPSP synthase; made in house; host or cells: E. coli SR481
Method: The balance of the #215 preculture (~750 μl) was used to inoculate 2 ml of MOPS medium containing 50 μg/ml carbenicillin and was shaken overnight at 37° C. to reach saturation. Plasmid DNA was isolated from an aliquot of the saturated culture using an alkaline lysis procedure. The plasmid was designated pMON8186. An aliquot of the pMON8186 plasmid was used to transform the E. coli host SR481 (described above) and reselected on MOPS medium containing 10 mM glyphosate and 50 μg/ml carbenicillin. A single glyphosate resistant colony of pMON8186 was picked off the selection plate and used to inoculate 3 ml of 2XYT bacterial medium containing 50 μg/ml carbenicillin. The culture was then aerated on rotating wheel at 37° C. until saturated, then it was used to inoculate a larger 500 ml culture. The large culture was grown to saturation by shaking it overnight at 37° C. in a water bath. The bacterial cells were lysed and the extracts were assayed for EPSPS activity.
Specifically, the bacterial cell paste was washed twice with 0.9% saline, suspended in buffer (100 mM Tris-HCl, 5 mM benzamidine HCl) and passed twice through the French Pressure Cell at 1000 psi. The cell extract was separated from the cells by centrifuging at 15,000 x gravity for 10 mins. at 5° C. It was desalted using Sephadex G-50 (Pharmacia, Piscataway, N.J.). The desalted extract was assayed for EPSP synthase activity as follows:
To an assay mix (40 μl) containing shikimate-3-phosphate (2 mM), ^14 C-phosphoenolpyruvate (1 mM, 1.2 mCi/mmol), ammonium molybdate (0.1 mM), potassium fluoride (5 mM) in 50 mM HEPES-KOH, pH 7, was added the extract and incubated at 25° C. for 2 mins. The reaction was quenched by the addition of 50 μl of 50 μl of 90% ethanol/0.1M acetic acid, pH 4.5. […] The radioactivity of the eluent was monitored using a Radiomatic Flo-One Beta Instrument. […] The EPSP synthase activity was determined by measurement of the conversion of ^14 C-PEP to ^14 C-EPSP synthase, both of which are resolved under the above conditions of chromatography. The protein content of the extract was determined by the method of Bradford (Biorad Labs, Calif.). The specific activity of the extract is expressed as nanomoles of EPSP synthase formed/min/mg protein.
Kinetic constants (appKm PEP and appKi glyphosate) were determined for EPSP synthase as described below. Substrate kinetic parameters were determined at pH 7.0 in 50 mM HEPES (N-[2-hydroxyethyl]piperazine-N'-[2-ethanesulfonic acid]) buffer in the presence of 2 mM S3P and varying amounts of ^14 C-PEP (10 μM-400 μM), for 2.0 minutes at 25° C. Reactions were quenched with 100 mM Na Acetate in ethanol, pH 4.5, centrifuged and analyzed for product EPSP formation by HPLC with flow radioactivity detection. […]

[2] = biological target: T2, variant petunia EPSP synthase with glycine (101) to alanine and glycine (144) to asparagine substitutions (Petunia hybrida, UniProt P11043, G173A/G216N); assay: EPSP synthase kinetic constants (Ki glyphosate, Km PEP); type: biochemical
T2 construct: GGT codon for glycine (144) in the mature petunia EPSP synthase
Method: (§1) Kinetic constants (appKm PEP and appKi glyphosate) were determined for EPSP synthase as described below. Substrate kinetic parameters were determined at pH 7.0 in 50 mM HEPES (N-[2-hydroxyethyl]piperazine-N'-[2-ethanesulfonic acid]) buffer in the presence of 2 mM S3P and varying amounts of ^14 C-PEP (10 μM-400 μM), for 2.0 minutes at 25° C. Reactions were quenched with 100 mM Na Acetate in ethanol, pH 4.5, centrifuged and analyzed for product EPSP formation by HPLC with flow radioactivity detection. HPLC conditions were 0.35 MKPi, pH 6.5, on a Synchropak AX100 column at 1.0 ml/min.

[3] = biological target: T3, petunia EPSP synthase glycine (101) to alanine variant (Petunia hybrida, UniProt P11043, G173A); assay: EPSP synthase kinetic constants (appKi glyphosate, appKm PEP); type: biochemical; conditions: relative to wild type
T3 construct: made in house; host or cells: E. coli
Method: To an assay mix (40 μl) containing shikimate-3-phosphate (2 mM), ^14 C-phosphoenolpyruvate (1 mM, 1.2 mCi/mmol), ammonium molybdate (0.1 mM), potassium fluoride (5 mM) in 50 mM HEPES-KOH, pH 7, was added the extract and incubated at 25° C. for 2 mins. The reaction was quenched by the addition of 50 μl of 50 μl of 90% ethanol/0.1M acetic acid, pH 4.5. 70 μl of the reaction mixture was loaded on a SynchroPak AX100 HPLC column (0.4×25 cm) and the column was eluted with 0.5M potassium phosphate, pH 5.5 at 1 ml/min. The radioactivity of the eluent was monitored using a Radiomatic Flo-One Beta Instrument. (Radiomatics, Fla.). The EPSP synthase activity was determined by measurement of the conversion of ^14 C-PEP to ^14 C-EPSP synthase, both of which are resolved under the above conditions of chromatography. The protein content of the extract was determined by the method of Bradford (Biorad Labs, Calif.). The specific activity of the extract is expressed as nanomoles of EPSP synthase formed/min/mg protein.
as §1

[4] = substrate: C=C(OP(=O)(O)O)C(=O)O; assay: purified protein, by the assay type; conditions: 25.0 °C

T1 sequence (P11043 73-516 G173A/G216D): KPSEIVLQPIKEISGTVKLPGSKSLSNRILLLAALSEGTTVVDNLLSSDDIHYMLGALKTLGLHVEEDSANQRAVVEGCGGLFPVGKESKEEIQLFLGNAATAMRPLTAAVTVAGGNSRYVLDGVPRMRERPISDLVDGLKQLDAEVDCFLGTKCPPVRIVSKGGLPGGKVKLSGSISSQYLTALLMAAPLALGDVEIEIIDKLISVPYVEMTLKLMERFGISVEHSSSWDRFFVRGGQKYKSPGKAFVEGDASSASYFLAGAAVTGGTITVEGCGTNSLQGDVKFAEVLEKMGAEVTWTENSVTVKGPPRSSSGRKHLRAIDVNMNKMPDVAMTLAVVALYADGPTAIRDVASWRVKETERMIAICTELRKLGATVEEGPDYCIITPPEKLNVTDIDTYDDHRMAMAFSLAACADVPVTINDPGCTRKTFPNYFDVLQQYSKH
T2 sequence (P11043 73-516 G173A/G216N): as the sequence (P11043 73-516 G173A/G216D) above, with D144N counted along it
T3 sequence (P11043 73-516 G173A): as the sequence (P11043 73-516 G173A/G216D) above, with D144G counted along it

In the case of `C=C(OP(=O)(O)O)C(=O)O` [PEP, phosphoenolpyruvate], the “Km for PEP” value [1] is reported as 40 µM, the “Km for PEP relative to the glycine (101) to alanine variant” value [1] is reported as “more than four fold lower” and the “Km for PEP” value [2] is reported as 91 µM.

In the case of `O=C(O)C1=C[C@@H](OP(=O)(O)O)[C@@H](O)[C@H](O)C1` [S3P, shikimate-3-phosphate], the “binding constant for shikimate-3-phosphate (S3P)” value [3] is reported as “not affected”.

B1: wild type petunia EPSP synthase (Petunia x hybrida) (protein)
chain: KPSEIVLQPIKEISGTVKLPGSKSLSNRILLLAALSEGTTVVDNLLSSDDIHYMLGALKTLGLHVEEDSANQRAVVEGCGGLFPVGKESKEEIQLFLGNAGTAMRPLTAAVTVAGGNSRYVLDGVPRMRERPISDLVDGLKQLGAEVDCFLGTKCPPVRIVSKGGLPGGKVKLSGSISSQYLTALLMAAPLALGDVEIEIIDKLISVPYVEMTLKLMERFGISVEHSSSWDRFFVRGGQKYKSPGKAFVEGDASSASYFLAGAAVTGGTITVEGCGTNSLQGDVKFAEVLEKMGAEVTWTENSVTVKGPPRSSSGRKHLRAIDVNMNKMPDVAMTLAVVALYADGPTAIRDVASWRVKETERMIAICTELRKLGATVEEGPDYCIITPPEKLNVTDIDTYDDHRMAMAFSLAACADVPVTINDPGCTRKTFPNYFDVLQQYSKH
Work on B1 yielded a Km [4] of 5.2 µM.
